{"source": "patent US9175077B2", "about": "“Nucleic acids encoding biologically active polypeptides derived from a novel early stage pregnancy factor designated maternin (MA)” (NOBEL BIOSCIENCES LLC, priority 1999, dated 2015)", "key": {"normal human cells": {"system": "normal human cells", "assay": "Effects on normal cells in vitro (confocal microscopy, trypan blue, MTT, 3H-thymidine)", "assay_type": "cell-based", "experimental": "More extensive studies of the effects of MA and with truncated synthetic forms of MA (MAS) on a wide range of other human tumor cells were carried out using three-dimensional confocal microscopy. Cells were cultured and then seeded onto gelatinized glass chamber slides and incubated 24 hrs with the various test materials. The slides were then fixed with formalin and treated serially with Triton X-100 (0.01%) for 10 min at 25°, 0.4 ug/ml fluorescein isothiocyanate (FITC)-labeled Phalloidin (Sigma Chem. Co.) at room temperature for 30 min to bind actin, washed with PBS and the DNA stained with Propidium iodide (PI) (0.5 ug·ml) (Sigma Chemical Co.), for 15 min. The stained slides were washed and mounted on slow fade (Molecular Probes, Inc., Eugene, Oreg.) and examined through a dual emission filter XF53 (Omega, Inc., Brattlesboro, Va.) by fluorescent microscopy. In some experiments only DNA staining was performed. In these instances Triton X-100 was not used. The slides were stained with PI and examined for cell morphology and chromatin degradation under 3D confocal microscopy.\nUntreated cells (first line) show normal morphology. The confocal microscopy results also verified the specificity of MA in killing tumor cells.\nTo be certain that this specificity for tumor cells was not simply the consequences of a difference between cycling and non-cycling cells, the following cell-types were also used: proliferating human normal fibroblasts, endothelial cells (HUVEC), and PHA-stimulated lymphocytes. […] In fact, MA actually promoted growth of some of these cells.\n(§1) These cells included human, primate, and rodent bone marrow, PBMCs, and human CD4+ T-cells, CD8+ T-cells, CD34+ cells, and macrophages enriched from normal PBMCs, as well as normal human endothelial cells and fibroblasts. Cytotoxicity was assessed by 3H-thymidine incorporation, trypan blue staining, cell numbers, and morphological examination by light and confocal microscopy. Hematopoiesis was not only unimpaired it was promoted. […] These studies were chiefly performed with rats and mice, but also included rhesus macaques treated with 0.2 mg/kg for several months. Like the in vitro results, hematopoiesis was not impaired but instead enhanced."}, "[1]": {"system": "spontaneous fibrosarcomas", "assay": "Spontaneous fibrosarcomas in FVB/N mice", "assay_type": "in vivo", "details": "treatment for 2 weeks", "description": "(§2) As shown, MA killed a wide variety of human tumor cells in vitro and in vivo killed xenotransplanted human tumors in immune deficient mice. We wanted to be certain that the in vivo results would not be limited to immune deficient mice. […] Therefore, we tested the effects of MA on: • spontaneous fibrosarcomas which developed in three older FVB/N mice; and • spontaneous breast carcinomas which developed in three older Sprague-Dawley rats.\nThe tumors were recognized and treated after different stages of development. Samples of the tumor cells were grown in short-term culture and when treated with MA underwent rapid apoptosis."}, "[2]": {"system": "spontaneous breast carcinomas", "assay": "Spontaneous breast carcinomas in Sprague-Dawley rats", "assay_type": "in vivo", "details": "2 weeks of therapy", "description": "as §2\nSimilar results were obtained with the spontaneous mammary carcinomas of rats."}, "B16 melanoma": {"system": "B16 melanoma", "assay": "Pro-apoptotic effect on cultured B16 melanoma cells", "assay_type": "cell-based, mouse", "details": "same dose range as cultured human tumor cells", "experimental": "(§3) B16 melanoma and Lewis lung (LL) carcinoma cells were first shown to be susceptible to the pro-apoptotic effects of MA (FIG. 6, Panels C and D) at the same dose range used with cultured human tumor cells. The tumor cells grown in standard culture conditions were used to generate metastatic cancers in pathogen-free 6-8 week old C57/BL mice (Charles River). In one set of experiments, the animals were treated with MAS1 or MAS2 at two doses, 0.1 ug or 1.0 ug either in a pre-treatment protocol (two subcutaneous inoculations 24 and 48 hrs before transplanting the tumor cells)."}, "[3]": {"system": "Lewis lung (LL) carcinoma cells", "assay": "Pro-apoptotic effect on cultured Lewis lung carcinoma cells", "assay_type": "cell-based, mouse", "details": "same dose range as cultured human tumor cells", "experimental": "as §3"}, "HIV-1 gene expression": {"system": "HIV-1 gene expression", "assay": "HIV-1 transgenic mice, pups feeding from treated mothers", "assay_type": "in vivo", "details": "for survival / development of pups (qualitative): mothers treated, pups breast fed", "description": "The transgenic mice contain 5.1 kb of the HIV-1 proviral genome, lacking gag and pol genes and 2.3 kb of vector.^172 The newly developed transgenic rat contains the same HIV-1 sequences and vector.\nTwenty-four hours after birth the mothers were either inoculated subcutaneously daily for 10 days or received an implanted osmotic pump delivering 30-150 pmoles of either native or synthetic MA or pMA. Various control polypeptides were used at equimolar or vast molar excess. The newborn pups were then allowed to feed from the foster mother breast milk over the entire period. Since the animals are at risk from needle inoculation, breastfeeding was the chosen route for MA administration.\nIn these experiments total RNA was extracted from samples of skin RNA206 10 days after birth of MA treated and untreated mice. One ug of RNA was reverse transcribed into cDNA using random hexamer primer and […] reverse transcriptase (Life Technologies, Inc.) in a final vol. Of 30 ul. Three ul of each reaction was used for PCR amplification of the HIV-1 gene sequences (env, tat, nef, and rev) as described […], and glyceraldehyde 3-phosphate dehydrogenase (GAPDH) was amplified from each sample for normalization. After 25 cycles, 10% of the products were resolved by electrophoresis on 2% agarose gels, transferred to nitrocellulose membranes by Southern blotting, and hybridized to fluorescein isthiocyanate-labeled oligonucleotide probes complementary to internal sequences of the amplicons […]. Bound probes were detected by chemiluminescence (Amersham) and relative mRNA levels determined by densitrometry after normalization with GAPDH mRNA levels."}, "[4]": {"assay": "Toxicity in animal studies", "assay_type": "in vivo, rats, mice", "details": "incl. rhesus macaques 0.2 mg/kg for several months", "experimental": "as §1"}, "[5]": {"system": "human bone marrow stem cells", "assay": "Engraftment of ex vivo expanded hematopoietic progenitor cells in irradiated rats", "set-up": "species or system Sprague Dawley rats", "details": "Rat S. Dawley irradiated 450 RAD; n = 3", "description": "(§4) The inventors also investigated the effect of MA on engraftment of human bone marrow stem cells [CD34^+, CD38″ cells, long term cultures after 4 mos, and stromal free cultures] ex vivo expanded hematopoietic progenitor cells in Rats irradiated [Sprague DAwley, 450 Rad] and immunodeficient mice [SCID or BNX-XID mice].\n(§5) Measurement of short-term hematopoietic reconstitution kinetics and long term repopulating ability. Just prior to implantation, SCID, BNX-XID-immunodeficient mice and Sprague Dawley rats were exposed to 450 rad total body γ-irradiation. […] But the SCID and BNX-XID immunodeficient mice were repopulated by the cultured, treated human cells."}, "[6]": {"system": "human bone marrow stem cells", "assay": "Engraftment of ex vivo expanded hematopoietic progenitor cells in SCID mice", "description": "as §4, §5"}, "hCG receptor": {"biological_target": "T1, hCG receptor (Homo sapiens, UniProt P22888)", "T1 construct": "host or cells: unspecified cells", "T1 sequence (P22888 27-699)": "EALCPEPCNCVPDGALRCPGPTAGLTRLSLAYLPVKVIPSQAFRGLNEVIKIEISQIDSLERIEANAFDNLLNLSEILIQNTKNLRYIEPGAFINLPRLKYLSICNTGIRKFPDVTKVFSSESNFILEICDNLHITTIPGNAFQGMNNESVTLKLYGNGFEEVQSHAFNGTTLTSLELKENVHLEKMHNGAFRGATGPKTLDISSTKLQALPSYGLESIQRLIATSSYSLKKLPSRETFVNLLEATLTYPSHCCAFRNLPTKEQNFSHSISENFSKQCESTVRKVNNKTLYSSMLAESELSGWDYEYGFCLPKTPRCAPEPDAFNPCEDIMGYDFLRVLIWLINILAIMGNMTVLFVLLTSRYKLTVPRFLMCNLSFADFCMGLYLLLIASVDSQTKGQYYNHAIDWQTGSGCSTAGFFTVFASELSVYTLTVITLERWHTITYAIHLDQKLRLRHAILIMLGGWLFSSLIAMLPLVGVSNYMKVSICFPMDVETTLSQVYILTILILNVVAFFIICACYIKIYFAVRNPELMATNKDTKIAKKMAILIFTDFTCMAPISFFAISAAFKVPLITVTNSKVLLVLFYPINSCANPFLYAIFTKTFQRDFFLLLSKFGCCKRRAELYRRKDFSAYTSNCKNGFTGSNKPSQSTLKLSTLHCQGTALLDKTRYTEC", "assay": "hCG receptor binding", "description": "In this regard, unusual β-hCG gene transcripts have been known for several years,^207 and as noted above, among the several related heterodimeric glycoprotein hormones, only β-hCG has multiple genes."}}, "note": "“Also recorded” adds a separate entry of the source.", "data": [{"sequence": "VVCNYRDVRFESIRLPGCPRGVNPVVSYAVALSCQ [MA]", "values": [{"measurement": "inhibition of growth or apoptosis of proliferating normal fibroblasts, HUVEC, PHA-stimulated lymphocytes", "setting": "normal human cells", "result": "no inhibition of growth or evidence of apoptosis"}, {"measurement": "effect on morphology of primary human fibroblasts, cord blood CD34+ cells, CD4+ T cells, macrophages", "setting": "normal human cells; 2000 ng/ml", "result": "no effect"}, {"measurement": "cytopathogenicity / toxic side effects on normal cells in vitro", "setting": "normal human cells; concentration ranges and time periods reported", "result": "no toxic side effects; also recorded: no cytopathogenicity"}, {"measurement": "cytotoxicity on normal cells at higher concentrations", "setting": "normal human cells; up to 10× the effective concentrations", "result": "no evident cytotoxic effects; also recorded: no evident cytotoxicity"}, {"measurement": "tumor outcome", "setting": "[1]", "result": "complete abolishment of the tumor in two of three animals; also recorded: Partial regression was observed in one animal"}, {"measurement": "tumor outcome", "setting": "[2]", "result": "complete tumor regression; also recorded: partial tumor regression"}, {"measurement": "susceptibility to pro-apoptotic effects", "setting": "B16 melanoma", "result": "susceptible"}, {"measurement": "susceptibility to pro-apoptotic effects", "setting": "[3]", "result": "susceptible"}, {"measurement": "weight over the ten day period", "setting": "HIV-1 gene expression; 30-150 pmoles", "result": "quadrupled their weight"}, {"measurement": "animals that eventually died", "setting": "HIV-1 gene expression; low dose (30 pmoles), after 2 mos", "result": "about 50%"}, {"measurement": "survival / development of pups (qualitative)", "setting": "HIV-1 gene expression", "result": "survived"}, {"measurement": "survival / development of pups (qualitative)", "setting": "HIV-1 gene expression; listed as native MA", "result": "normal development"}, {"measurement": "HIV-1 viral expression in tissues", "setting": "HIV-1 gene expression; mouse, in vivo", "result": "marked inhibition of viral expression"}, {"measurement": "toxic side effects grossly or by blood counts", "setting": "[4]", "result": "no evident toxic side effects"}, {"measurement": "CD4", "setting": "[5]", "result": 1, "unit": "%"}, {"measurement": "CD14", "setting": "[5]", "result": 1, "unit": "%"}, {"measurement": "CD34", "setting": "[5]", "result": 40, "unit": "%"}, {"measurement": "CD4", "setting": "[6]", "result": 2, "unit": "%"}, {"measurement": "CD14", "setting": "[6]", "result": 2, "unit": "%"}, {"measurement": "CD34", "setting": "[6]", "result": 38, "unit": "%"}, {"measurement": "binding to the hCG receptor", "setting": "hCG receptor", "result": "does not bind"}]}]}
